Source: ChEMBL document CHEMBL2401728, “An unexpected Dimroth rearrangement leading to annelated thieno[3,2-d][1,2,3]triazolo[1,5-a]pyrimidines with potent antitumor activity” (Eur J Med Chem, 2013)

Key:
Type in all cases: functional
OVCAR-4 = assay: Cytotoxicity against human OVCAR4 cells assessed as cellular growth at 0.01 uM after 48 hrs by SRB assay relative to control
[1] = Cytotoxicity against human EKVX cells assessed as cellular growth at 0.01 uM after 48 hrs by SRB assay relative to control
DU-145 = assay: Cytotoxicity against human DU145 cells assessed as cellular growth at 100 uM after 48 hrs by SRB assay relative to control
TK-10 [2] = assay: Cytotoxicity against human TK10 cells assessed as cellular growth at 100 uM after 48 hrs by SRB assay relative to control
[3] = Cytotoxicity against human NCI-ADR-RES cells assessed as cellular growth at 100 uM after 48 hrs by SRB assay relative to control
SK-MEL-5 = assay: Cytotoxicity against human SK-MEL-5 cells assessed as cellular growth at 100 uM after 48 hrs by SRB assay relative to control
SNB-75 = assay: Cytotoxicity against human SNB75 cells assessed as cellular growth at 100 uM after 48 hrs by SRB assay relative to control
HCT-116 [4] = assay: Cytotoxicity against human HCT116 cells assessed as cellular growth at 100 uM after 48 hrs by SRB assay relative to control
NCI-H23 = assay: Cytotoxicity against human NCI-H23 cells assessed as cellular growth at 100 uM after 48 hrs by SRB assay relative to control
[5] = Cytotoxicity against human EKVX cells assessed as cellular growth at 100 uM after 48 hrs by SRB assay relative to control
SR = assay: Cytotoxicity against human SR cells assessed as cellular growth at 100 uM after 48 hrs by SRB assay relative to control
SK-OV-3 = assay: Cytotoxicity against human SKOV3 cells assessed as cellular growth at 10 uM after 48 hrs by SRB assay relative to control
M14 = assay: Cytotoxicity against human M14 cells assessed as cellular growth at 10 uM after 48 hrs by SRB assay relative to control
Hs-578T = assay: Cytotoxicity against human Hs578T cells assessed as cellular growth at 1 uM after 48 hrs by SRB assay relative to control
RXF 393 [6] = assay: Cytotoxicity against human RXF393 cells assessed as cellular growth at 1 uM after 48 hrs by SRB assay relative to control
MDA-MB-435 [7] = assay: Cytotoxicity against human MDA-MB-435 cells assessed as cellular growth at 1 uM after 48 hrs by SRB assay relative to control
HCT-116 [8] = assay: Cytotoxicity against human HCT116 cells assessed as cellular growth at 1 uM after 48 hrs by SRB assay relative to control
HL-60(TB) = assay: Cytotoxicity against human HL-60(TB) cells assessed as cellular growth at 1 uM after 48 hrs by SRB assay relative to control
TK-10 [9] = assay: Cytotoxicity against human TK10 cells after 48 hrs by SRB assay; conditions: TK-10, 48 h
RXF 393 [10] = assay: Cytotoxicity against human RXF393 cells after 48 hrs by SRB assay; conditions: RXF 393, 48 h
786-0 = assay: Cytotoxicity against human 786-0 cells after 48 hrs by SRB assay; conditions: 786-0, 48 h
SK-MEL-28 [11] = assay: Cytotoxicity against human SK-MEL-28 cells after 48 hrs by SRB assay; conditions: SK-MEL-28, 48 h
MDA-MB-435 [12] = assay: Cytotoxicity against human MDA-MB-435 cells after 48 hrs by SRB assay; conditions: MDA-MB-435, 48 h
Malme-3M = assay: Cytotoxicity against human MALME-3M cells after 48 hrs by SRB assay
LOX IMVI = assay: Cytotoxicity against human LOXIMVI cells after 48 hrs by SRB assay
SF-295 = assay: Cytotoxicity against human SF295 cells after 48 hrs by SRB assay; conditions: SF-295, 48 h
IGROV-1 = assay: Cytotoxicity against human IGROV1 cells assessed as cellular growth at 0.1 uM after 48 hrs by SRB assay relative to control
UACC-257 = assay: Cytotoxicity against human UACC257 cells assessed as cellular growth at 0.1 uM after 48 hrs by SRB assay relative to control
SK-MEL-28 [13] = assay: Cytotoxicity against human SK-MEL-28 cells assessed as cellular growth at 0.1 uM after 48 hrs by SRB assay relative to control
SW-620 = assay: Cytotoxicity against human SW620 cells assessed as cellular growth at 0.1 uM after 48 hrs by SRB assay relative to control
NCI-H322M = assay: Cytotoxicity against human NCI-H322M cells assessed as cellular growth at 0.1 uM after 48 hrs by SRB assay relative to control
MCF7 = assay: Cytotoxicity against human MCF7 cells assessed as cellular growth at 0.01 uM after 48 hrs by SRB assay relative to control
TK-10 [14] = assay: Cytotoxicity against human TK10 cells assessed as cellular growth at 0.01 uM after 48 hrs by SRB assay relative to control
ACHN = assay: Cytotoxicity against human ACHN cells assessed as cellular growth at 0.01 uM after 48 hrs by SRB assay relative to control
A498 = assay: Cytotoxicity against human A498 cells assessed as cellular growth at 0.01 uM after 48 hrs by SRB assay relative to control
[15] = read-out: LC50 (the source's name)
[16] = read-out: pLC50 (the source's name) (converted)

O=C(CCCn1c2c(sc3ccccc32)c(=O)n2nnc(-c3ccccc3)c12)NCCc1c[nH]cn1
Activity (OVCAR-4): 110%
Activity [1]: 104%
Activity (DU-145): -100%
Activity (TK-10 [2]): -79%
Activity [3]: 32%
Activity (SK-MEL-5): -100%
Activity (SNB-75): -96%
Activity (HCT-116 [4]): 3%
Activity (NCI-H23): -38%
Activity [5]: -24%
Activity (SR): -100%
Activity (SK-OV-3): -6%
Activity (M14): -80.56%
Activity (Hs-578T): 70%
Activity (RXF 393 [6]): 113%
Activity (MDA-MB-435 [7]): 34%
Activity (HCT-116 [8]): -27%
Activity (HL-60(TB)): 29%
GI50 (TK-10 [9]; read-out: GI50): 2.17 µM
CC50 (TK-10 [9]; [15]): 6.42 µM
TGI (TK-10 [9]; read-out: TGI): 3.73 µM
GI50 (TK-10 [9]; read-out: pGI50 (converted)): 2.19 µM
CC50 (TK-10 [9]; [16]): 6.46 µM
TGI (TK-10 [9]; read-out: pTGI (converted)): 3.72 µM
GI50 (RXF 393 [10]; read-out: GI50): 2.2 µM
CC50 (RXF 393 [10]; [15]): 7.77 µM
TGI (RXF 393 [10]; read-out: TGI): 4.14 µM
GI50 (RXF 393 [10]; read-out: pGI50 (converted)): 2.19 µM
CC50 (RXF 393 [10]; [16]): 7.76 µM
TGI (RXF 393 [10]; read-out: pTGI (converted)): 4.17 µM
GI50 (786-0; read-out: GI50): 1.05 µM
CC50 (786-0; [15]): 5.34 µM
TGI (786-0; read-out: TGI): 2.37 µM
GI50 (786-0; read-out: pGI50 (converted)): 1.05 µM
CC50 (786-0; [16]): 5.37 µM
TGI (786-0; read-out: pTGI (converted)): 2.34 µM
GI50 (SK-MEL-28 [11]; read-out: GI50): 1.69 µM
CC50 (SK-MEL-28 [11]; [15]): 5.91 µM
TGI (SK-MEL-28 [11]; read-out: TGI): 3.17 µM
GI50 (SK-MEL-28 [11]; read-out: pGI50 (converted)): 1.7 µM
CC50 (SK-MEL-28 [11]; [16]): 5.89 µM
TGI (SK-MEL-28 [11]; read-out: pTGI (converted)): 3.16 µM
GI50 (MDA-MB-435 [12]; read-out: GI50): 0.345 µM
CC50 (MDA-MB-435 [12]; [15]): 4.7 µM
TGI (MDA-MB-435 [12]; read-out: TGI): 1.87 µM
GI50 (MDA-MB-435 [12]; read-out: pGI50 (converted)): 0.347 µM
CC50 (MDA-MB-435 [12]; [16]): 4.68 µM
TGI (MDA-MB-435 [12]; read-out: pTGI (converted)): 1.86 µM
GI50 (Malme-3M; read-out: GI50): 1.58 µM
CC50 (Malme-3M; [15]): 6.8 µM
TGI (Malme-3M; read-out: TGI): 3.28 µM
GI50 (Malme-3M; read-out: pGI50 (converted)): 1.58 µM
CC50 (Malme-3M; [16]): 6.76 µM
TGI (Malme-3M; read-out: pTGI (converted)): 3.31 µM
GI50 (LOX IMVI; read-out: GI50): 1.51 µM
CC50 (LOX IMVI; [15]): 5.49 µM
TGI (LOX IMVI; read-out: TGI): 2.88 µM
GI50 (LOX IMVI; read-out: pGI50 (converted)): 1.51 µM
CC50 (LOX IMVI; [16]): 5.5 µM
TGI (LOX IMVI; read-out: pTGI (converted)): 2.88 µM
GI50 (SF-295; read-out: GI50): 0.456 µM
CC50 (SF-295; [15]): 5.41 µM
TGI (SF-295; read-out: TGI): 2.11 µM
GI50 (SF-295; read-out: pGI50 (converted)): 0.457 µM
CC50 (SF-295; [16]): 5.37 µM
TGI (SF-295; read-out: pTGI (converted)): 2.09 µM
Activity (IGROV-1): 50%
Activity (UACC-257): 108%
Activity (SK-MEL-28 [13]): 121%
Activity (SW-620): 29%
Activity (NCI-H322M): 78%
Activity (MCF7): 98%
Activity (TK-10 [14]): 96%
Activity (ACHN): 104%
Activity (A498): 93%

CN1CCN(CCCn2c3c(sc4ncccc43)c(=O)n3nnc(-c4ccccc4)c23)CC1
Activity (OVCAR-4): 100%
Activity [1]: 98%
Activity (DU-145): -88%
Activity (TK-10 [2]): -47%
Activity [3]: -62%
Activity (SK-MEL-5): -96%
Activity (SNB-75): -94%
Activity (HCT-116 [4]): -64%
Activity (NCI-H23): -59%
Activity [5]: -80%
Activity (SR): -42%
Activity (M14): -75%
Activity (Hs-578T): 96%
Activity (RXF 393 [6]): 93%
Activity (MDA-MB-435 [7]): 99%
Activity (HCT-116 [8]): 88%
Activity (HL-60(TB)): 89%
GI50 (TK-10 [9]; read-out: GI50): 2.15 µM
TGI (TK-10 [9]; read-out: TGI): 3.75 µM
GI50 (TK-10 [9]; read-out: pGI50 (converted)): 2.14 µM
TGI (TK-10 [9]; read-out: pTGI (converted)): 3.72 µM
GI50 (RXF 393 [10]; read-out: GI50): 1.7 µM
CC50 (RXF 393 [10]; [15]): 5.86 µM
TGI (RXF 393 [10]; read-out: TGI): 3.15 µM
GI50 (RXF 393 [10]; read-out: pGI50 (converted)): 1.7 µM
CC50 (RXF 393 [10]; [16]): 5.89 µM
TGI (RXF 393 [10]; read-out: pTGI (converted)): 3.16 µM
GI50 (786-0; read-out: GI50): 1.87 µM
CC50 (786-0; [15]): 6.56 µM
TGI (786-0; read-out: TGI): 3.5 µM
GI50 (786-0; read-out: pGI50 (converted)): 1.86 µM
CC50 (786-0; [16]): 6.61 µM
TGI (786-0; read-out: pTGI (converted)): 3.47 µM
GI50 (SK-MEL-28 [11]; read-out: GI50): 15.8 µM
CC50 (SK-MEL-28 [11]; [15]): 55.5 µM
TGI (SK-MEL-28 [11]; read-out: TGI): 29.6 µM
GI50 (SK-MEL-28 [11]; read-out: pGI50 (converted)): 15.8 µM
CC50 (SK-MEL-28 [11]; [16]): 55 µM
TGI (SK-MEL-28 [11]; read-out: pTGI (converted)): 29.5 µM
GI50 (MDA-MB-435 [12]; read-out: GI50): 1.87 µM
CC50 (MDA-MB-435 [12]; [15]): 6.68 µM
TGI (MDA-MB-435 [12]; read-out: TGI): 3.54 µM
GI50 (MDA-MB-435 [12]; read-out: pGI50 (converted)): 1.86 µM
CC50 (MDA-MB-435 [12]; [16]): 6.76 µM
TGI (MDA-MB-435 [12]; read-out: pTGI (converted)): 3.55 µM
GI50 (Malme-3M; read-out: GI50): 1.97 µM
CC50 (Malme-3M; [15]): 6.72 µM
TGI (Malme-3M; read-out: TGI): 3.64 µM
GI50 (Malme-3M; read-out: pGI50 (converted)): 1.95 µM
CC50 (Malme-3M; [16]): 6.76 µM
TGI (Malme-3M; read-out: pTGI (converted)): 3.63 µM
GI50 (LOX IMVI; read-out: GI50): 1.66 µM
TGI (LOX IMVI; read-out: TGI): 3.36 µM
GI50 (LOX IMVI; read-out: pGI50 (converted)): 1.66 µM
TGI (LOX IMVI; read-out: pTGI (converted)): 3.39 µM
GI50 (SF-295; read-out: GI50): 1.96 µM
CC50 (SF-295; [15]): 6.96 µM
TGI (SF-295; read-out: TGI): 3.7 µM
GI50 (SF-295; read-out: pGI50 (converted)): 1.95 µM
CC50 (SF-295; [16]): 6.92 µM
TGI (SF-295; read-out: pTGI (converted)): 3.72 µM
Activity (IGROV-1): 96%
Activity (UACC-257): 99%
Activity (SK-MEL-28 [13]): 95%
Activity (SW-620): 89%
Activity (NCI-H322M): 80%
Activity (MCF7): 91%
Activity (TK-10 [14]): 105%
Activity (ACHN): 105%
Activity (A498): 67%
